Measured values from patent US20110160399A1, “HISTONE MODIFICATION INHIBITOR SPECIFIC TO TARGET GENE” (NIHON UNIVERSITY, priority 2008, published 2011).
“Also recorded” adds a separate entry of the source.

What was measured:
LARP1 gene expression = experiment: Expression analysis of LARP1 gene by quantitative PCR in HEK293 cells; type: cell-based, human; conditions: 150 nM, one week, compared to esterified SAHA+p16 PIP or SAHA+non-targeting PIP, FIG. 11
Method: HEK293 cells were used to analyze LARP1 gene expression. HEK293 cells are a cell line established by transformation of human embryonic kidney cells with the adenovirus E1 gene. The LARP1 gene includes, in its gene region, a sequence similar to the sequence of the regulatory region in the p16 gene recognized by SAHA+p16 PIP, as described above. More specifically, the expression analysis was accomplished as follows. HEK293 cells were cultured in DMEM growth medium containing 10% fetal calf serum (FCS). During culture, the medium was replaced every two days by a culture solution containing the synthesized compound (SAHA+p16 PIP, esterified SAHA+p16 PIP or SAHA+non-targeting PIP) at a final concentration of 150 nM, and cell culture was continued for one week in the medium containing the above synthesized compound. After one week, the cells were lysed with 1 ml of TRIzol and then mixed with 200 μl of chloroform, followed by centrifugation at 12000×g at 4° C. for 10 minutes. Then, the supernatant was mixed with an equal volume of isopropanol and centrifuged at 12000×g at 4° C. for 10 minutes. Then, the pellet was washed with a 70% ethanol solution and centrifuged at 5000×g for 5 minutes to remove the supernatant. […] The RNA (1 μg) was used as a template to synthesize cDNA, followed by quantitative PCR. […]

[1] = tested on: HeLa (human uterine cervical cancer cell line); experiment: Cell proliferation assay (WST-8) on HeLa cells; type: cell-based; conditions: for suppression of HeLa cell proliferation: 72 hours, various concentrations
Method: (§1) Next, the synthesized compounds were verified by WST-8 assay for their ability to suppress cancer cell proliferation.
(§2) Cell lines of HeLa (human uterine cervical cancer cell line), LOVO, RKO and SW480 (each of which was a human large bowel cancer cell line) were each cultured at 37° C. under 5% carbon dioxide conditions using Dulbecco's modified Eagle's medium (DMEM, Nacalai Tesque, Inc., Japan) supplemented with 10% fetal bovine serum (FBS: JRH bioscience, USA), antibiotics (50 U/ml penicillin and 50 μg/ml streptomycin) and 1 mM sodium pyruvate. Single-layered cells grown to 80-90% confluency on 10 cm cell culture dishes were washed with D-PBS(−) (Nacalai Tesque, Inc., Japan) and then released from the dishes by being treated with a phenol red-containing 2.5 g/L-Trypsine/1 mmol/L EDTA solution (Nacalai Tesque, Inc., Japan). The released cells were adjusted and maintained in fresh medium.
(§3) Each cell line seeded at 3×10^3 cells/well in a MICROTEST tissue culture plate (96 well, FALCON) was cultured at 37° C. under 5% carbon dioxide conditions for 24 hours, and then cultured in the presence of various concentrations of PI polyamide for an additional 72 hours. After completion of the culture, 10 μl of viable cell counting reagent SF (Nacalai Tesque, Inc., Japan) was added to each well and the absorbance at 450 nm was measured by ARVO EX (PerkinElmer). During the period from reagent addition until assay, incubation was continued at 37° C. in the presence of 5% CO2 until the absorbance reached about 1.2 to 2.0 in the control sample where only 50% DMSO was added to the cells.

[2] = tested on: RKO (human large bowel cancer cell line); experiment: Cell proliferation assay (WST-8) on RKO cells; type: cell-based
Method: as §1, §2, §3

[3] = tested on: LOVO (human large bowel cancer cell line); experiment: Cell proliferation assay (WST-8) on LOVO cells; type: cell-based; conditions: 72 hours
Method: as §1
(§4) Cell lines of HeLa (human uterine cervical cancer cell line), LOVO, RKO and SW480 (each of which was a human large bowel cancer cell line) were each cultured at 37° C. under 5% carbon dioxide conditions using Dulbecco's modified Eagle's medium (DMEM, Nacalai Tesque, Inc., Japan) supplemented with 10% fetal bovine serum (FBS: JRH bioscience, USA), antibiotics (50 U/ml penicillin and 50 μg/ml streptomycin) and 1 mM sodium pyruvate. […]
as §3

[4] = tested on: SW480 (human large bowel cancer cell line); experiment: Cell proliferation assay (WST-8) on SW480 cells; type: cell-based; conditions: SW480, 72 hours, FIG. 4
Method: as §1, §4, §3

[5] = tested on: histone deacetylase (HDAC); experiment: HDAC activity assay (HDAC Fluorimetric Assay/Drug Discovery Kit); type: biochemical, human; conditions: HDAC-containing HeLa cell nuclear fraction, 37°C for 1 hour, various concentrations; FIG. 2
Method: To verify whether the activity of histone deacetylase (HDAC) was inhibited by compounds composed of the synthesized SAHA derivatives and polyamides attached to each other, an HDAC Fluorimetric Assay/Drug Discovery Kit (BIOMOL international) was used in the experiment. Although details followed the instructions of the kit manufacturer, an HDAC-containing HeLa cell (human uterine cervical cancer cell line) nuclear fraction was added to an acetylation substrate and incubated at 37° C. for 1 hour in the presence of various concentrations of the synthesized compounds or trichostatin A (hereinafter referred to as TSA) used as a positive control, followed by addition of the developer included in the kit to stop the HDAC-catalyzed reaction. Then, the samples were transferred to a 96-well assay plate and measured with ARVO EX (Perkin Elmer) for emission at 460 nm from the reaction product upon excitation at 360 nm.

SMILES: CN(C)CCCNC(=O)CCNC(=O)c1cc(NC(=O)c2nc(NC(=O)c3nc(NC(=O)CCNC(=O)c4cc(NC(=O)c5nc(NC(=O)CCCNC(=O)c6cc(NC(=O)c7nc(NC(=O)CCNC(=O)c8cc(NC(=O)c9cc(NC(=O)c%10nc(NC(=O)CCNC(=O)CCNC(=O)c%11ccc(NC(=O)CCCCCCC(=O)NO)cc%11)cn%10C)cn9C)cn8C)cn7C)cn6C)cn5C)cn4C)cn3C)cn2C)cn1C [SAHA+p16 PIP, SAHA-ββImPyPyβImPyγImPyβImImPyβDp]
- expression of the LARP1 gene (LARP1 gene expression): increased expression
- suppression of HeLa cell proliferation ([1]; WST-8, FIG. 3, FIG. 4): high antitumor effect
- suppression of HeLa cell proliferation ([1]; WST-8, FIG. 3, FIG. 4, listed as p16 PIP attached to the SAHA derivative): proliferation inhibition; also recorded: inhibit proliferation
- ability to suppress proliferation, compared among the 4 cancer cell lines (HeLa) ([1]; FIG. 4): high
- suppression of RKO cell proliferation at 100 nM ([2]; 100 nM, 72 hours, FIG. 4): not suppressed
- inhibition of RKO cell proliferation ([2]; 72 hours, WST-8, FIG. 4): inhibit proliferation
- ability to suppress proliferation, compared among the 4 cancer cell lines (RKO) ([2]; FIG. 4, listed as p16 PIP attached to the SAHA derivative): high and lowest
- suppression of LOVO cell proliferation at 100 nM ([3]; 100 nM, FIG. 4): not suppressed
- inhibition of LOVO cell proliferation ([3]; WST-8, FIG. 4): inhibit proliferation
- inhibition of SW480 cell proliferation [4]: inhibit proliferation
- anti-HDAC activity [5]: confirmed to have anti-HDAC activity
